Patent US7485324B2, “Use of exogenous gaseous nitric oxide in the treatment and disinfection of biofilms” (Pulmonox Technologies Corporation, priority 2003, dated 2009)

Columns and labels:
B. cenocepacia C8963 = assay: Biofilm formation in 96-well microtiter dish assay (crystal violet staining, A595); assay type: cell-based, Burkholderia cenocepacia; settings: for C8963 biofilm growth in the presence of gNO compared with absence of gNO: 200 ppm gNO; for Average A595 (C8 + NO), biofilm formation: experiment 2
Description: (§1) Objective: To determine if exposure to gaseous nitric oxide (gNO) affects the ability of B. cenocepacia C8963 to form a biofilm in a 96-well microtiter dish assay.
(§2) Methods: B. cenocepacia C8963, a non-mucoid isolate from a cystic fibrosis (CF) patient, and C9343, a mucoid isolate from the same patient, were spotted on Luria Broth agar and grown at 37° C. overnight. Luria broth containing 0.5% (w/v) casamino acids was dispensed into 96-well polypropylene microtiter dishes (100 μl per well) and the wells inoculated with the C8963 or C9343 using a pin-inoculation device. Blank wells were not inoculated. Dishes were incubated in a humidified, closed plastic container for 24 hours at 37° C. (experiment 1) or in the outer chamber of the matrix incubator (a humidified incubator with controlled air flow) for 27 hours at 37° C. (experiment 2). At 24 hours (experiment 1) or 27 hours (experiment 2), one dish was processed for staining of the bacterial biofilms. The remaining dishes were incubated in the inner treatment arms of the matrix incubator at 37° C. in the presence or absence of 200 ppm gNO. One dish for each of the conditions (+gNO or −gNO) was processed for biofilm staining at 32, 36, and 48 hours.
(§3) To stain biofilm growth, planktonic bacteria were removed from the microtitre dishes by discarding media and cells. Biofilms were washed to remove remaining non-adherent bacteria in two successive tap water washes. Water was shaken from the wells and the dishes inverted and tapped vigorously on a stack of paper towels to remove as much water as possible. Adherent growth was stained by adding 125 μlof a 0.1% (w/v) solution of crystal violet to each well and incubating at room temperature for 15 minutes. Crystal violet was discarded as for the previous washes and excess stain was removed in three successive tap-water washes. Excess water was removed by vigorous tapping as before and the stained dishes allowed to air dry.
(§4) To quantitate biofilm formation, 200 μl of 95% ethanol was added to each well, incubated at room temperature for 15 minutes, and 125 μl from each well was removed to a clean flat-bottomed polystyrene microtitre dish. The absorbance at 595 nm was read on a Bio-Rad Model 3550 Microplate Reader. The average reading from “Blank” (uninoculated) wells containing only media was subtracted from each “Test” well. The [Test-Blank] averages and standard errors of the mean (SEM) were calculated for each condition and time.

B. cenocepacia C9343 = assay: as above; assay type: cell-based, Burkholderia cenocepacia; settings: 200 ppm gNO; experiment 1
Description: as §1, §2, §3, §4

Compound: [N]=O [gNO, nitric oxide]
- Effect on biofilm formation of C8963 (B. cenocepacia C8963; 200 ppm final concentration of gNO): inhibited biofilm formation
- C8963 biofilm growth in the presence of gNO compared with absence of gNO (B. cenocepacia C8963; at 32 hours, experiments 1 and 2): greater than in the absence of gNO
- C8963 biofilm growth in the presence of gNO compared with absence of gNO (B. cenocepacia C8963; by 36 hours, experiments 1 and 2): significantly lower than in the absence of gNO
- C8963 biofilm growth in the presence of gNO compared with absence of gNO (B. cenocepacia C8963; remaining time points up to 48 hours, both experiments): consistently lower
- Average A595 (C8 + NO), biofilm formation (B. cenocepacia C8963; time 27 h, after 27 hours in air, before exposure to 200 ppm gNO): 0.076
- Average A595 (C8 + NO), biofilm formation (B. cenocepacia C8963; time 32 h, 200 ppm gNO from 27 h, 37° C.): 0.282
- Average A595 (C8 + NO), biofilm formation (B. cenocepacia C8963; time 36 h, 200 ppm gNO from 27 h, 37° C.): 0.252
- Average A595 (C8 + NO), biofilm formation (B. cenocepacia C8963; time 48 h, 200 ppm gNO from 27 h, 37° C.): 0.334
- Effect on biofilm growth of C8963 (B. cenocepacia C8963; low initial concentrations of gNO): enhanced biofilm growth
- Induction of biofilm formation by mucoid C9343 (B. cenocepacia C9343): did not induce biofilm formation
